Calls of active or inactive are those of the source. No cut-off for these calls is given here.
Experiments:
[1] = molecular target: NACHT, LRR and PYD domains-containing protein 3 (Mus musculus) (UniProt Q8R4B8); test: (§1) Inhibition of NLRP3 inflammasome activation in ICR mouse BMDM assessed as inhibition of LPS/ATP-stimulated IL-1 beta expression in cell supernatant treated for 3 hrs with LPS followed by incubation with compound for 1 hr and later stimulated with ATP for 0.5 hrs by western blot analysis; format: cell-based; details: dose 0.2-5 µM, time 1.5 hrs
[2] = molecular target: NACHT, LRR and PYD domains-containing protein 3 (Mus musculus) (UniProt Q8R4B8); test: Inhibition of NLRP3 inflammasome activation in ICR mouse BMDM assessed as inhibition of LPS/ATP-stimulated caspase-1 expression in cell supernatant at 1 uM treated for 3 hrs with LPS followed by incubation with compound for 1 hr and later stimulated with ATP for 0.5 hrs by western blot analysis; format: cell-based; details: time 1.5 hrs
[3] = molecular target: NACHT, LRR and PYD domains-containing protein 3 (Mus musculus) (UniProt Q8R4B8); test: Inhibition of NLRP3 inflammasome priming in ICR mouse BMDM assessed as inhibition of ASC protein expression in cell lysate at 0.2 to 5 uM treated for 3 hrs with LPS followed by incubation with compound for 1 hr and later stimulated with ATP for 0.5 hrs by western blot analysis; format: subcellular; details: dose 0.2-5 µM, time 1.5 hrs
[4] = molecular target: NACHT, LRR and PYD domains-containing protein 3 (Mus musculus) (UniProt Q8R4B8); test: Inhibition of NLRP3 inflammasome priming in ICR mouse BMDM assessed as inhibition of pro-IL-1 beta protein expression in cell lysate at 0.2 to 5 uM treated for 3 hrs with LPS followed by incubation with compound for 1 hr and later stimulated with ATP for 0.5 hrs by western blot analysis; format: subcellular; details: dose 0.2-5 µM, time 1.5 hrs
[5] = molecular target: NACHT, LRR and PYD domains-containing protein 3 (Mus musculus) (UniProt Q8R4B8); test: Inhibition of NLRP3 inflammasome priming in ICR mouse BMDM assessed as inhibition of pro-IL-1 beta protein expression in cell lysate at 1 uM treated for 3 hrs with LPS followed by incubation with compound for 1 hr and later stimulated with ATP for 0.5 hrs by western blot analysis; format: subcellular; details: time 1.5 hrs
[6] = molecular target: NACHT, LRR and PYD domains-containing protein 3 (Mus musculus) (UniProt Q8R4B8); test: as §1, with “LPS/nigericin-stimulated” for “LPS/ATP-stimulated”, “supernatant at 1 uM” for “supernatant”, “nigericin” for “ATP”; format: cell-based; details: time 1.5 hrs
[7] = molecular target: NLR family CARD domain-containing protein 4 (Mus musculus) (UniProt Q3UP24); test: Inhibition of NLRC4 inflammasome activation in ICR mouse BMDM assessed as inhibition of FLA-ST-stimulated IL-1 beta secretion in cell supernatant at 1 uM treated for 3 hrs with LPS followed by incubation with compound for 1 hr and later stimulated with FLA-ST for 2 hrs by ELISA; format: cell-based
Mus musculus [8] = test: (§2) Anti-inflammatory activity against LPS-stimulated acute lung injury C57BL/6 mouse model assessed as decrease in IL-6 level in BALF at 0.1 to 1 mg/kg, ip treated for 3 days and on third day administered with LPS at 30 mins post-compound challenge and measured after 12 hrs by ELISA; format: functional, organism-based; details: dose 0.1-1 mg/kg, time 3.5 day
Mus musculus [9] = test: as §2, with “TNF-alpha mRNA expression” for “IL-6 level”, “right lung” for “BALF”, “RT-qPCR analysis” for “ELISA”; format: functional, organism-based; details: dose 0.1-1 mg/kg, time 3.5 day
Mus musculus [10] = test: Anti-inflammatory activity against LPS-stimulated acute lung injury C57BL/6 mouse model assessed as decrease in partial alveolar congestion in right lung at 1 to 10 mg/kg, ip treated for 3 days and on third day administered with LPS at 30 mins post-compound challenge and measured after 12 hrs by Hematoxylin-Eosin staining analysis; format: functional, organism-based; details: dose 1-10 mg/kg, time 3.5 day

NACHT, LRR and PYD domains-containing protein 3 (Mus musculus), sequence (Q8R4B8 whole entry, the tested form may be a part): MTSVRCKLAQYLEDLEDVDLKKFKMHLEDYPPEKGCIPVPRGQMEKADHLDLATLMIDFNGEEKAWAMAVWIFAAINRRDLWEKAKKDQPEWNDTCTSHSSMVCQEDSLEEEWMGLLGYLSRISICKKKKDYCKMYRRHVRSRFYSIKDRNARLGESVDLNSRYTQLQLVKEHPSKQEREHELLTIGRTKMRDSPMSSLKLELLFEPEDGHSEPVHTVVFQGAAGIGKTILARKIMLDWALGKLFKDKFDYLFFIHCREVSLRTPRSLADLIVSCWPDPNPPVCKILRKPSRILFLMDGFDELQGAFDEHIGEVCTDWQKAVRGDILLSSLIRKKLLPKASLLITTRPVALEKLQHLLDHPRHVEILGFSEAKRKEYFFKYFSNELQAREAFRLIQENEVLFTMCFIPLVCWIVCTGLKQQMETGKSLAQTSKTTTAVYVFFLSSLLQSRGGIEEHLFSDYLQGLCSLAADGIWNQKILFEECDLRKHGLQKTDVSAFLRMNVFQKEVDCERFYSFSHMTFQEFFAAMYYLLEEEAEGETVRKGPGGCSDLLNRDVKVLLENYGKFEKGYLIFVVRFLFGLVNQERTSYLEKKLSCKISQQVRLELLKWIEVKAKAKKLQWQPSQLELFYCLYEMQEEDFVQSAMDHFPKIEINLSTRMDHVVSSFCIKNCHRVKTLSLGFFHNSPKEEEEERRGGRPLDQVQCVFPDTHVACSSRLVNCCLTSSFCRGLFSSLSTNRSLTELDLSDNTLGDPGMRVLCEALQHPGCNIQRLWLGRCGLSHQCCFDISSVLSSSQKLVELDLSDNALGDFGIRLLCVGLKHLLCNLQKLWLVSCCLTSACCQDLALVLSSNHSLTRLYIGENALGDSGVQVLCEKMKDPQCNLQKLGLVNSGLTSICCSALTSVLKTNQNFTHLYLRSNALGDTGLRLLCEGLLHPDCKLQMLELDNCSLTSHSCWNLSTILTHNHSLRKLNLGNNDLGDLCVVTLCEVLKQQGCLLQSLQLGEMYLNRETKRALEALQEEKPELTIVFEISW
NLR family CARD domain-containing protein 4 (Mus musculus), sequence (Q3UP24 whole entry, the tested form may be a part): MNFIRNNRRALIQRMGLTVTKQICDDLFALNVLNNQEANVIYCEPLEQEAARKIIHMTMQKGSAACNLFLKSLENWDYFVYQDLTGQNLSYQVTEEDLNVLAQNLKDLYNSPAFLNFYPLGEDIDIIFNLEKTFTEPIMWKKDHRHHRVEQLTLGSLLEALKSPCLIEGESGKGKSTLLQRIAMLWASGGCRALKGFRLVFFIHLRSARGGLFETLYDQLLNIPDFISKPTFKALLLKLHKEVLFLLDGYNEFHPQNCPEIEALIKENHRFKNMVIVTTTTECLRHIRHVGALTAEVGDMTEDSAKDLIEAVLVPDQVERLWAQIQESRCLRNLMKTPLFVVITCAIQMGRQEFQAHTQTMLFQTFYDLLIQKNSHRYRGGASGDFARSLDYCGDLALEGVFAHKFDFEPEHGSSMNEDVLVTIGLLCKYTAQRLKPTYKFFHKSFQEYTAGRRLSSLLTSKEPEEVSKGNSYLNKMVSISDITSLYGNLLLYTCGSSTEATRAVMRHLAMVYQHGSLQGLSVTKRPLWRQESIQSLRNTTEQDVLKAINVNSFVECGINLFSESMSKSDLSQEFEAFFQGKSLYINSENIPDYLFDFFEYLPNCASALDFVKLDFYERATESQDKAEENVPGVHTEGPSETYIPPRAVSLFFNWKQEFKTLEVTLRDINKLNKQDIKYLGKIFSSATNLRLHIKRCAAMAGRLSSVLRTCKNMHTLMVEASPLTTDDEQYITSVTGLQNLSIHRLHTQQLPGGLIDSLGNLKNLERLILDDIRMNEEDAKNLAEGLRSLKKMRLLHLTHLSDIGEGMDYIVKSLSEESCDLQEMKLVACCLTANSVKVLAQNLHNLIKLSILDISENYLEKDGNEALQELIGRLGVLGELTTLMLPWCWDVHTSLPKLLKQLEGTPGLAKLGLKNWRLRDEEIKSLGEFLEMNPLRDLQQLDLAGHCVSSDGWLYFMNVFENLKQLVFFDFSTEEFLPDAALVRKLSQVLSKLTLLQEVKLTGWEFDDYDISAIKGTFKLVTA

inhibition [1]: Dose-Dependent Effect | inhibition [2]: Active | inhibition [3]: inactive | inhibition [4]: inactive | inhibition [5]: inactive | inhibition [6]: Active | inhibition [7]: inactive
Structure (SMILES): C=C1C(=O)[C@]23[C@H](OC(=O)Nc4ccc(F)cc4)[C@H]1CC[C@H]2[C@]12C=CCC(C)(C)[C@H]1[C@H](O)[C@@]3(O)OC2
Activity (Mus musculus [8]): Dose-Dependent Effect | Activity (Mus musculus [9]): Dose-Dependent Effect | Activity (Mus musculus [10]): Active
